# Columns and labels:
# Test in all cases: relative viability (nuclei count vs DMSO), 5 days (fraction); higher = more cells survive
# CAL-12T = system: CAL-12T
# In short: (§1)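 Lung cancer cell lines in 1536-well plates were dosed by pin tool the day after seeding, either with one drug alone or with a fixed anchor-drug dose plus five library-drug doses (not always all listed) in √10 steps. After 5 days, cells were fixed and their nuclei stained in one step (final 0.05% Triton X-100, 1% formaldehyde, 1 ug/ml Hoechst), then counted on 4× images. Relative viability is the nuclei count in treated wells divided by that in vehicle wells. Values are medians of duplicate plates.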
# HOP-62 = system: HOP-62
# In short: as §1
# NCI-H2009 = system: NCI-H2009
# In short: as §1
# NCI-H727 = system: NCI-H727
# In short: as §1
# COR-L 105 = system: COR-L 105
# In short: as §1
# LCLC-97TM1 = system: LCLC-97TM1
# In short: as §1
# BEN = system: BEN
# In short: as §1
# LC-2-ad = system: LC-2-ad
# In short: as §1
# HARA = system: HARA
# In short: as §1
# PC-3 [JPC-3] = system: PC-3 [JPC-3]
# In short: as §1
# HCC-827 = system: HCC-827
# In short: as §1
# LU99A = system: LU99A
# In short: as §1
# LXF-289 = system: LXF-289
# In short: as §1
# NCI-H2126 = system: NCI-H2126
# In short: as §1
# HCC-15 = system: HCC-15
# In short: as §1
# HCC-366 = system: HCC-366
# In short: as §1
# COR-L23 = system: COR-L23
# In short: as §1
# NCI-H1993 = system: NCI-H1993
# In short: as §1
# PC-14 = system: PC-14
# In short: as §1
# HCC-44 = system: HCC-44
# In short: as §1
# NCI-H2087 = system: NCI-H2087
# In short: as §1
smiles,measurement,setting,value
O=C(O)CCCCC(CCSCc1ccccc1)SCc1ccccc1 (stereo not given) [CPI-613] + CC(C)C[C@H](NC(=O)[C@H](Cc1ccccc1)NC(=O)c1cnccn1)B(O)O [Bortezomib] (partner 0.002 µM),relative viability,CAL-12T; first compound 5 µM,0.866
same,relative viability,CAL-12T; first compound 15.81 µM,0.774
same,relative viability,CAL-12T; first compound 50 µM,0.758
same,relative viability,CAL-12T; first compound 158.11 µM,0.498
same,relative viability,CAL-12T; first compound 500 µM,0.277
same,relative viability,HOP-62; first compound 5 µM,0.511
same,relative viability,HOP-62; first compound 15.81 µM,0.545
same,relative viability,HOP-62; first compound 50 µM,1.26
same,relative viability,HOP-62; first compound 158.11 µM,0.464
same,relative viability,HOP-62; first compound 500 µM,0.0422
same,relative viability,NCI-H2009; first compound 5 µM,1.07
same,relative viability,NCI-H2009; first compound 15.81 µM,0.942
same,relative viability,NCI-H2009; first compound 50 µM,0.884
same,relative viability,NCI-H2009; first compound 158.11 µM,0.0722
same,relative viability,NCI-H2009; first compound 500 µM,0.0082
same,relative viability,NCI-H727; first compound 5 µM,0.806
same,relative viability,NCI-H727; first compound 15.81 µM,0.782
same,relative viability,NCI-H727; first compound 50 µM,0.792
same,relative viability,NCI-H727; first compound 158.11 µM,0.665
same,relative viability,NCI-H727; first compound 500 µM,0.0714
same,relative viability,COR-L 105; first compound 5 µM,0.652
same,relative viability,COR-L 105; first compound 15.81 µM,0.859
same,relative viability,COR-L 105; first compound 50 µM,0.542
same,relative viability,COR-L 105; first compound 158.11 µM,0.287
same,relative viability,COR-L 105; first compound 500 µM,0.195
same,relative viability,LCLC-97TM1; first compound 5 µM,0.728
same,relative viability,LCLC-97TM1; first compound 15.81 µM,0.276
same,relative viability,LCLC-97TM1; first compound 50 µM,0.583
same,relative viability,LCLC-97TM1; first compound 158.11 µM,0.532
same,relative viability,LCLC-97TM1; first compound 500 µM,0.819
same,relative viability,BEN; first compound 5 µM,0.819
same,relative viability,BEN; first compound 15.81 µM,0.539
same,relative viability,BEN; first compound 50 µM,0.633
same,relative viability,BEN; first compound 158.11 µM,0.708
same,relative viability,BEN; first compound 500 µM,0.658
same,relative viability,LC-2-ad; first compound 5 µM,0.621
same,relative viability,LC-2-ad; first compound 15.81 µM,0.932
same,relative viability,LC-2-ad; first compound 50 µM,0.979
same,relative viability,LC-2-ad; first compound 158.11 µM,0.259
same,relative viability,LC-2-ad; first compound 500 µM,0.0023
same,relative viability,HARA; first compound 5 µM,1.02
same,relative viability,HARA; first compound 15.81 µM,1.09
same,relative viability,HARA; first compound 50 µM,1.19
same,relative viability,HARA; first compound 158.11 µM,0.716
same,relative viability,HARA; first compound 500 µM,0.114
same,relative viability,PC-3 [JPC-3]; first compound 5 µM,0.83
same,relative viability,PC-3 [JPC-3]; first compound 15.81 µM,0.695
same,relative viability,PC-3 [JPC-3]; first compound 50 µM,0.755
same,relative viability,PC-3 [JPC-3]; first compound 158.11 µM,0.451
same,relative viability,PC-3 [JPC-3]; first compound 500 µM,0.452
same,relative viability,HCC-827; first compound 5 µM,0.923
same,relative viability,HCC-827; first compound 15.81 µM,1.02
same,relative viability,HCC-827; first compound 50 µM,0.926
same,relative viability,HCC-827; first compound 158.11 µM,0.916
same,relative viability,HCC-827; first compound 500 µM,0.786
same,relative viability,LU99A; first compound 5 µM,1.04
same,relative viability,LU99A; first compound 15.81 µM,1.04
same,relative viability,LU99A; first compound 50 µM,0.961
same,relative viability,LU99A; first compound 158.11 µM,0.815
same,relative viability,LU99A; first compound 500 µM,0.08
same,relative viability,LXF-289; first compound 5 µM,0.981
same,relative viability,LXF-289; first compound 15.81 µM,1.03
same,relative viability,LXF-289; first compound 50 µM,0.94
same,relative viability,LXF-289; first compound 158.11 µM,0.554
same,relative viability,LXF-289; first compound 500 µM,0.069
same,relative viability,NCI-H2126; first compound 5 µM,1.11
same,relative viability,NCI-H2126; first compound 15.81 µM,1.06
same,relative viability,NCI-H2126; first compound 50 µM,1.04
same,relative viability,NCI-H2126; first compound 158.11 µM,0.669
same,relative viability,NCI-H2126; first compound 500 µM,0.761
same,relative viability,HCC-15; first compound 5 µM,0.938
same,relative viability,HCC-15; first compound 15.81 µM,0.932
same,relative viability,HCC-15; first compound 50 µM,0.905
same,relative viability,HCC-15; first compound 158.11 µM,0.757
same,relative viability,HCC-15; first compound 500 µM,0.394
same,relative viability,HCC-366; first compound 5 µM,1.01
same,relative viability,HCC-366; first compound 15.81 µM,0.957
same,relative viability,HCC-366; first compound 50 µM,1.06
same,relative viability,HCC-366; first compound 158.11 µM,0.391
same,relative viability,HCC-366; first compound 500 µM,0.0068
same,relative viability,COR-L23; first compound 5 µM,0.938
same,relative viability,COR-L23; first compound 15.81 µM,0.941
same,relative viability,COR-L23; first compound 50 µM,1
same,relative viability,COR-L23; first compound 158.11 µM,0.408
same,relative viability,COR-L23; first compound 500 µM,0.0074
same,relative viability,NCI-H1993; first compound 5 µM,0.953
same,relative viability,NCI-H1993; first compound 15.81 µM,0.918
same,relative viability,NCI-H1993; first compound 50 µM,0.943
same,relative viability,NCI-H1993; first compound 158.11 µM,0.717
same,relative viability,NCI-H1993; first compound 500 µM,0.363
same,relative viability,PC-14; first compound 5 µM,0.989
same,relative viability,PC-14; first compound 15.81 µM,0.855
same,relative viability,PC-14; first compound 50 µM,0.839
same,relative viability,PC-14; first compound 158.11 µM,0.893
same,relative viability,PC-14; first compound 500 µM,0.339
same,relative viability,HCC-44; first compound 5 µM,0.878
same,relative viability,HCC-44; first compound 15.81 µM,0.832
same,relative viability,HCC-44; first compound 50 µM,0.913
same,relative viability,HCC-44; first compound 158.11 µM,0.596
same,relative viability,HCC-44; first compound 500 µM,0.0155
same,relative viability,NCI-H2087; first compound 5 µM,0.838
same,relative viability,NCI-H2087; first compound 15.81 µM,0.725
same,relative viability,NCI-H2087; first compound 50 µM,0.827
same,relative viability,NCI-H2087; first compound 158.11 µM,0.33
same,relative viability,NCI-H2087; first compound 500 µM,0.016

# Reference: the supplement of paper PMC10307832
